Experimental data: US10093716B2, “Methods for treating cancer” (UCL BUSINESS PLC, priority 2013, dated 2018)

Columns and labels:
[1] = system: A549-luc cells; test: Experimental lung metastasis model, A549-luc cells injected into tail vein; type: in vivo, SCID beige mice; conditions: 0.5 mg/mouse i.p., 3× per week starting 1 day after cell injection; bioluminescence after 2 weeks; FIG. 3D
Protocol: FIGS. 3A-3D| KRAS-mutated cells require autocrine TRAIL-R2-mediated migration for metastasis formation. FIG. 3A, 2×10^6 A549-luc cells infected with shTRAIL-R2 or control vector were injected into the tail vein of SCID beige mice. Metastatic burden in the lungs was detected after three weeks by quantification of bioluminescence (Photons/second). Three representative mice from each group are shown (n=9/group). FIG. 3B, FIG. 3C Five lungs from each group that were closest to the average value of the respective group in the H&E quantification were subjected to further Ki67 and TUNEL stainings and quantified as Ki67 and TUNEL positive area within tumor nodules, respectively. Representative images are shown. FIG. 3D, A549-luc parental cells were injected as in FIG. 3A, mice were treated with Vehicle (PBS) or 0.5 mg TRAIL-R2-Fc/mouse starting the next day, 3× per week.
Bioluminescence was determined after 2 weeks, representative mice are shown (n=8/group). Arrows indicate Ki67/TUNEL-positive cells. Dots represent individual lungs. Values are means+/−SEM; ns, not significant; * P<0.05 Student's t-test.
Animal Models. […] Photons per second (Photon Flux) were quantified using the Ivis Spectrum software. […] After one week, tumours were palpable and their size was measured by caliper. […]

[2] = system: A549 cells; test: xCELLigence migration assay, A549; type: cell-based, human; conditions: 100 μg/ml recombinant receptor-Fc protein during migration, FIG. 1F
Protocol: siRNA-mediated knockdown. Knockdown experiments were performed by transient transfection of RISC-free control siRNA, siRNA pools or single sequences (Dharmacon) to silence the indicated proteins using Dharmafect I (Dharmacon) following the instruction manual. All cell lines were incubated for 48 h to achieve sufficient knockdown.
Migration assays. Migration assays were performed using the xCELLigence System (Roche) according to manufacturer's instructions. See Supplementary Methods for detailed description.
Migration assays were performed using the xCELLigence System (Roche) that uses specially designed microtiter plates containing gold microelectrodes to measure electrical impedance of cells adhering to electrodes in real time. Increased impedance of background control wells was subtracted from all other values, the increase in electrical impedance/migration of control siRNA-transfected/control vector-infected cells was then defined as 100% migration and relative migration of all other transfected samples was calculated as compared to control-transfected cells, accordingly. Migration plates (CIM 16) are based on the Boyden chamber principle, the lower surface of the filter is covered with microelectrodes measuring cells that have migrated through the pores and adhere to the lower surface of the filter in real time. […]

[3] = system: Rac1; test: Rac1 pulldown assay (GTP-bound Rac1, PAK1-beads), isogenic DLD-1 and DKO4; type: cell-based, human; conditions: isogenic KRAS-mutated DLD-1 versus KRAS-WT DKO4, iz-TRAIL 100 ng/ml; FIG. 7E
Protocol: FIGS. 7A-7F| Autocrine migration is independent of the DISC but requires Rac1. FIG. 7A, FADD-deficient clones 10, 41 and 50 were transfected with the indicated siRNAs and subjected to migration assays. FIG. 7B, Control vector-infected or shTRAIL-R2-infected A549 cells were fixed and stained using Texas red-coupled phalloidin and DAPI. Representative confocal images are shown (×400).c, A549 cells were treated with DMSO, PD98059 (10 μM), PIK75 (100 nM) or NSC23766 (100 μM) and subjected to migration assays. FIG. 7D, A549 cells were transfected with the indicated siRNAs and subjected to migration assays. FIG. 7E, Isogenic DLD-1 and DKO4 cells were treated with iz-TRAIL (100 ng/ml) for the indicated times and then subjected to pulldown of GTP-bound Rac1 using PAK1-beads (Millipore-Rac1 activation kit). FIG. 7F, KRAS-WT DKO4 cells were transfected with the indicated siRNAs and prior to migration treated with vehicle (H2O) or 10 μM Y27632. Representative Western blots are shown.
2.5×10^6 cells were seeded into 10 cm dishes. The next day, cells were incubated with and without 100 ng/ml iz-TRAIL. Cell lysis and Rac1 pulldown was performed using a Rac1-pulldown kit (Millipore) according to the manufacturer's instructions. Proteins were separated by SDS-PAGE (NuPAGE) and analyzed by Western blotting.

[4] = system: Rac1; test: Rac1 pulldown assay (GTP-bound Rac1, PAK1-beads), A549; type: cell-based, human; conditions: A549 cells, iz-TRAIL 100 ng/ml; FIG. 8E
Protocol: FIGS. 8A-8J| Autocrine TRAIL is required for caspase-independent migration and Rac1 activation. FIG. 8A, DLD-1 cells were transfected with the indicated siRNAs and subjected to migration assays. FIG. 8B, A549 cells were treated with DMSO or 10 μM zVAD-fmk and were subsequently subjected to migration assays. FIG. 8C, Dominant negative FADD (dnFADD)-overexpressing DLD-1 cells were transfected with the indicated siRNAs and subjected to migration assays. FIG. 8D, Parental and DLD-1 cells overexpressing dnFADD were treated with 1 μg/ml iz-TRAIL for the indicated times, subsequently lysed and subjected to Western blot analysis. FIG. 8E, A549 cells were treated with iz-TRAIL (100 ng/ml) for the indicated times and subjected to pulldown of GTP-bound Rac1 using PAK1-beads (Millipore-Rac1 activation kit). Cell lysates were subsequently analyzed by Western blotting. FIG. 8F, Control or shTRAIL-R2-infected A549 cells were subjected to pulldown of GTP-bound Rac1 as in FIG. 8E. FIG. 8G, A549 cells were transfected with the indicated siRNAs and subjected to migration assays. FIG. 8H, KRAS-mutated (DLD-1, HCT116) and isogenic KRAS-WT (DKO4, Hkh-2) cell lines were lysed and subjected to Western blotting. FIG. 8I, KRAS-mutated H460 cells were transfected with the indicated siRNAs. […]
2.5×10^6 cells were seeded into 10 cm dishes. […] Proteins were separated by SDS-PAGE (NuPAGE) and analyzed by Western blotting.

Molecule	metastasis (metastatic burden in lungs, bioluminescence) [1]	migration (normalized to PBS-treated cells) [2]	Rac1 activation (GTP-bound Rac1 pulldown) [3]	Rac1 activation (GTP-bound Rac1 pulldown) [4]
TRAIL-R2-Fc fusion protein: majority of the extracellular domain of human TRAIL-R2 fused to the Fc portion of human IgG1 (SEQ ID NO: 15); TRAIL-inhibiting	significantly reduced metastasis	suppressed migration to a similar extent	–	–
TRAIL: recombinant iz-TRAIL produced in E. coli, LPS-free after purification (protein) MAMMEVQGGPSLGQTCVLIVIFTVLLQSLCVAVTYVYFTNELKQMQDKYSKSGIACFLKEDDSYWDPNDEESMNSPCWQVKWQLRQLVRKMILRTSEETISTVQEKQQNISPLVRERGPQRVAAHITGTRGRSNTLSSPNSKNEKALGRKINSWESSRSGHSFLSNLHLRNGELVIHEKGFYYIYSQTYFRFQEEIKENTKNDKQMVQYIYKYTSYPDPILLMKSARNSCWSKDAEYGLYSIYQGGIFELKENDRIFVSVTNEHLIDMDHEASFFGAFLVG	–	–	only capable of doing so in KRAS-mutated cells	able to activate Rac1
